Laboratory results taken from patent publication US20190151346A1, “COMBINATIONS THERAPIES FOR THE TREATMENT OF CANCER” (INSERM (INSTITUTE NATIONAL DE LA SANTÉ ET DE LA RECHERCHE …, priority 2016, published 2019).

Key:
Type in all cases: cell-based
[1] = test system: Src; test: Tyrosine phosphorylation by Western blotting: Src phosphorylation in TNBC cell lines
Method: (§1) BT20 and MDA-MB468 triple negative (HER2-, ER-, PR-) were obtained from American Type Culture Collection (ATCC N°HTB19, and ATCC N°HTB132, respectively). The LumB, and Her2-, ER-, PR-negative IJG-1731 cell line was previously established at the laboratory as described (Mombelli et al. Sci Rep. 2015 Jul. 8; 5:11874.) BT20 and IJG-1731 cells were grown in complete RPMI-1640 media with L-glutamine, supplemented with 10% fetal calf serum (FCS) and penicillin—streptomycin solution (100 μg/ml each) (Life technology, Saint-Aubain, France). MDA-MB468 cells were grown in a complete DMEM-F12 media with glutamine, 10% FCS and penicillin—streptomycin. All cells were maintained in a humidified 5% CO2 atmosphere at 37° C. All experiments were conducted with cells at confluency and starved for an overnight.
(§2) Cells (3×10^5) were seeded in 6-well plates in complete medium for 24 hours then starved for another overnight. Cells were then stimulated with IL-17E (10 ng/ml), EGF (10 ng/ml), or a combination of both for 30 min in serum-free medium. Cells were then lysed in 1% Triton X100 buffer and left on ice for 1 hours. Protein samples were then subjected to 8% SDS-PAGE. Western blotting using specific antibodies assessed then the phosphorylation of the various kinases.

[2] = test system: EGFR; test: Tyrosine phosphorylation by Western blotting: EGFR phosphorylation in TNBC cell lines; conditions: for IL-17E- and EGF-induced phosphorylation of Y1086 EGFR: AZM475271 10 μM pre-treatment, FIG. 2A
Method: BT20 and MDA-MB468 triple negative (HER2-, ER-, PR-) were obtained from American Type Culture Collection (ATCC N°HTB19, and ATCC N°HTB132, respectively). […] MDA-MB468 cells were grown in a complete DMEM-F12 media with glutamine, 10% FCS and penicillin—streptomycin. All cells were maintained in a humidified 5% CO2 atmosphere at 37° C. All experiments were conducted with cells at confluency and starved for an overnight.
as §2

[3] = test system: STAT3; test: Cellular fractionation and Western blotting: STAT3 and pSTAT3 translocation to the nucleus; conditions: MDA-MB468 fractions
Method: as §1
Cells (3×10^5) were seeded in 6-well plates in complete medium for 24 hours then starved for another overnight. Cells were stimulated for 2 hours at 37° C. with IL-17E (10 ng/ml), EGF (long/ml), or a combination of both as indicated. Cells were then washed with PBS and lysed in a lysis buffer (HEPES 10 mM, MgCl2 15 mM KCl 10 mM, DTT 0.5 mM, PMSF 0.2 mM, 1 mM Na3VO4, 10 mM NaF, 0.5% Nonidet P-40). […] Protein concentrations were determined by using Bradford method. […]

[4] = test system: EGFR; test: Immunofluorescence microscopy: localization of EGFR; conditions: MDA-MB468; 10 ng/ml, 2 hours; FIG. 4A, FIG. 7
Method: as §1
Cells (4.10^3) were grown on Lab-Tek chambers slide in their respective complete culture medium for 24 hours then starved for an overnight. Cells were then stimulated with IL-17E (long/ml), EGF (10 ng/ml) or a combination of both for 2 hours at 37° C., washed, and fixed with 4% paraformaldehyde (PFA)-PBS solution at 4° C. […] Slides were mounted with mounting medium containing Dapi then visualized with a Leica DMRB fluorescence microscope and images analysis was performed with the Archimed Software (Microvision).

| Molecule | IL-17E- and EGF-induced Src phosphorylation ([1]; TNBC cell lines pre-treated with AZM475271 (10 μM), then stimulated with IL-17E or EGF (10 ng/ml), FIG. 2A) | IL-17E- and EGF-induced phosphorylation of Y1086 EGFR ([2]; IJG-1731 and BT20 cell lines) | IL-17E- and EGF-induced phosphorylation of Y1086 EGFR ([2]; MDA-MB468) | EGFR activation downstream IL-17E or IL-17B ([2]; TNBC cells, Src specific inhibitor, discussion, FIG. 6) | phosphorylation of STAT3α and β [3] | phosphorylation of Src at Y416 at suboptimal concentrations ([1]; MDA-MB468, IL-17E 1 ng/ml alone or EGF 0.1-1 ng/ml alone, FIG. 3) | translocation of EGFR (immunofluorescence) [4] |
| --- | --- | --- | --- | --- | --- | --- | --- |
| COc1ccc(Cl)c(Nc2ncnc3cc(OCC4CCN(C)CC4)c(OC)cc23)c1 [AZM475271] | inhibited | abolished | to a lesser extent | inhibition |  |  |  |
| EGF: epidermal growth factor, EGFR ligand used as stimulus (NSDSECPLSHDGYCLHDGVCMYIEALDKYACNCVVGYIGERCQYRDLKWWELR; Epidermal growth factor; UniProt P01133 971-1023, looked up) |  |  |  |  | induced the phosphorylation | failed to induce any significant phosphorylation | induced strong translocation of EGFR from the membrane to the nucleus |
